Reference: patent US7273848B2, “Apolipoprotein A-I agonists and their use to treat dyslipidemic disorders” (priority 1997, dated 2007)
No end group written: not given here.

Tests used:
[1] = target: T1, LCAT (purified from human plasma) (Homo sapiens, UniProt P04180); test: LCAT activation assay; assay type: biochemical; conditions: LCAT activation as compared with native human ApoA-I (= 100%), equivalent masses
T1 construct: from tissue; host or cells: human plasma
T1 sequence (P04180 25-440): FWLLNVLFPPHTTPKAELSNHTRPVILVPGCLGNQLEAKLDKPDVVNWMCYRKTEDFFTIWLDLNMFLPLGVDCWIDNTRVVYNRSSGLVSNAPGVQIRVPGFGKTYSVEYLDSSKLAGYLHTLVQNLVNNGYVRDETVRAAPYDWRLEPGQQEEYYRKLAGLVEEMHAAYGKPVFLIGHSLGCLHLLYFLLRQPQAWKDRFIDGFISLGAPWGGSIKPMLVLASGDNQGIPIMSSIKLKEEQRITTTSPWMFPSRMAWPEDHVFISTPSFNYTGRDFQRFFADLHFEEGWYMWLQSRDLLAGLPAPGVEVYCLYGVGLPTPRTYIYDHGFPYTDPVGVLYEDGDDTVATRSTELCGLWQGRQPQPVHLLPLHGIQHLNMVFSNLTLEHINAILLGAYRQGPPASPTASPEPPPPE
Summary of the method: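 Substrate SUVs of EPC or POPC with 14C-cholesterol (20:1 molar ratio), in 10 mM Tris, 0.14 M NaCl, 1 mM EDTA, pH 7.4, were preincubated with peptide or equal mass of plasma ApoA-I. Reaction started with human plasma LCAT; activation was measured as cholesterol-to-ester conversion relative to ApoA-I (100%).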

[2] = Circular dichroism helicity determination; assay type: physicochemical; conditions: percent helicity; for He (%) TFE: 5 μM peptide, 90% vol TFE; for He (%) TFE / He (%) SUVs: 37° C.; for He (%) free: unbound peptide 5 μM in 5 mM phosphate buffer, pH 7.4, 37° C.; for He (%) SUVs: peptide-SUV complexes (20:1 EPC:Chol., Ri=30 and Ri=50); for He (%) mics: peptide-micelle complexes, Ri=100, 37° C.
Summary of the method: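 Far-UV CD (190–260 nm) at 37° C on 5 μM peptide in 5 mM phosphate pH 7.4, free, with EPC:Chol 20:1 SUVs (Ri 30 or 50), lysophosphatidylcholine micelles (Ri 100) or 90% TFE. Spectra converted to molar ellipticity per residue; helicity from 222 nm ellipticity or CONTIN fitting to reference spectra, ±5%.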

| ACTIVITY (%) LCAT [1] | He (%) TFE [2] | He (%) free [2] | He (%) SUVs [2] | He (%) mics [2] | ACTIVITY (%) LCAT ([1]; listed as 18AM4) | Substance |
| --- | --- | --- | --- | --- | --- | --- |
| 19% | 58% | 49% | 60% | 72% | – | Ac-EWLKAFYEKVLEKLKELF-NH2 [peptide 238, reference compound] |
| 38% | 68% | 28% | 53% | 63% | – | Ac-PVLDLFRELLEEWKQKLK-NH2 [compound 215] |
| 5% | – | 10% | 50% | 64% | – | DWFKAFYDKVAEKFKEAF [peptide 243, reference compound] |
| 4% | – | 38% | 70% | 77% | – | DWLKAFYDKVFEKFKEFF [peptide 245, reference compound] |
| 4% | – | 18% | 47% | 44% | less than 4% | EWLEAFYKKVLEKLKELF [peptide 246, reference compound] |
| 3% | – | 18% | 13% | 45% | – | EWLKAFYEKVLEKLKELF [peptide 248, reference compound] |
| 11% | – | 30% | 45% | 66% | – | LDDLLQKWAEAFNQLLKK [peptide 237, reference compound] |
| 1% | 65% | 29% | 32% | 28% | – | PAADAFREAANEAAEAAKQKAK [compound 105] |
| 7% | 69% | 58% | 64% | 61% | – | PLDLFRELLNELLEALKQKLK [compound 85] |
| 19% | 75% | 38% | 78% | 72% | – | PLFRELLNELLEALKQKLK [compound 55] |
| 31% | 95% | 95% | – | 100% | – | PLLELLKELLQELLEALKQKLK [compound 36] |
| 1% | 55% | 21% | 29% | 49% | – | PLLNELLEALKQKLK [compound 104] |
| 8% | 51% | 21% | 23% | 56% | – | PVLDAFRELLEALAQLKK [compound 223] |
| 5% | 63% | 18% | 27% | 70% | – | PVLDEFREKLNEALEALKQKLK [peptide 94, reference compound] |
| 0% | – | 6% | – | 22% | – | PVLDEFREKLNEPLEALKQKLK [compound 113] |
| 0% | 58% | 19% | 23% | 45% | – | PVLDEFREKLNERLEALKQKLK [peptide 109, reference compound] |
| 83% | 73% | 77% | 85% | 89% | – | PVLDLFKELLNELLEALKQKLK [peptide 7] |
| 25% | 77% | 66% | 79% | 84% | – | PVLDLFNELLRELLEALQKKLK [compound 40] |
| 22% | 64% | 27% | 54% | 64% | – | PVLDLFRELLEELQKKLK [compound 220] |
| 30% | 70% | 52% | 76% | 78% | – | PVLDLFRELLELLKQKLK [compound 217] |
| 83% | 93% | 20% | 61% | 90% | – | PVLDLFRELLNEGLEALKQKLK [compound 8] |
| 16% | 84% | 39% | 66% | 83% | – | PVLDLFRELLNELLEALKQ [compound 60] |
| 98% | 95% | 70% | 80% | 95% | – | PVLDLFRELLNELLEWLKQKLK [compound 3] |
| 47% | 62% | 54% | 67% | 71% | – | PVLDLFRELLNELLQKLK [compound 209] |
| 40% | 81% | 82% | 90% | 98% | – | PVLDLFRELLNELWEALKQKLK [compound 28] |
| 19% | 78% | 76% | 84% | 71% | – | PVLDLFRELLNEWLEALKQKLK [compound 54] |
| 29% | 73% | 65% | 76% | 75% | – | PVLDLFREWLNELLEALKQKLK [compound 37] |
| 15% | 70% | 64% | 66% | 82% | – | PVLDLFRNLLEELLEALQKKLK [compound 66] |
| 22% | 57% | 57% | 52% | 65% | – | PVLDLFRNLLEKLLEALEQKLK [compound 49] |

| Substance | ACTIVITY (%) LCAT [1] | He (%) TFE [2] | He (%) free [2] | He (%) SUVs [2] | He (%) mics [2] | ACTIVITY (%) LCAT ([1]; listed as 18AM4) |
| --- | --- | --- | --- | --- | --- | --- |
| Ac-DWLKAFYDKVAEKLKEAF-NH2 [compound 240, reference compound] | 10% | 57% | 16% | 59% | 68% | – |
| Ac-PLLDLFRELLEELKQKLK-NH2 [compound 197] | 81% | 69% | 43% | – | 70% | – |
| Ac-PVLDLFKELLEELKQKLK-NH2 [compound 192] | 100% | 56% | 36% | – | – | – |
| Ac-PVLDLFRELLEELKQKLK-NH2 [compound 193] | 96% | 87% | 34% | 87% | 88% | – |
| Ac-PVLDLFRELWEELKQKLK-NH2 [compound 199] | 76% | 79% | 35% | 80% | 77% | – |
| Ac-PVLELFRELLEELKQKLK-NH2 [compound 194] | 88% | 93% | 38% | – | 93% | – |
| DWLKAFYDKVAEKLKEAF [peptide 244, reference compound] | 5% | 48% | 9% | 13% | 40% | – |
| GVLELFENLLERLLDALQKKLK [peptide 145] | 100% | 58% | 55% | – | 51% | – |
| PVLDLFRELLEELKQKLK [compound 210] | 46% | 53% | 20% | 37% | 63% | – |
| PVLDLFRELLEELLKALKKKLK [compound 39] | 25% | 72% | 66% | 68% | 69% | – |
| PVLDLFRELWNELLEALKQKLK [peptide 15] | 60% | 68% | 55% | 64% | 60% | – |
| PVLDWFRELLNELLEALKQKLK [compound 35] | 31% | – | 49% | 61% | 59% | – |
| PVLELFENLLERGLDALQKKLK [peptide 154] | 39% | 80% | 13% | 25% | 76% | – |
